pIC50: −log10 of the molar value.

The test can be described thus: In vitro binding affinity against sigma receptor by using [3H]-DTG ([3H]-6) as radioligand in guinea pig cerebellum.
With `c1ccc2c(c1)CCCC21CCN(CC2CC2)CC1`, the pIC50 is 8.00.
For `C=CCCN1CCC2(CCCc3ccccc32)CC1`, the pIC50 is 8.18.
As for `c1ccc2c(c1)CCCC21CCN(CC2CCCO2)CC1` (stereo not given), the pIC50 was 8.26.
On to `Cc1ccc(CN2CCC3(CCc4ccccc43)CC2)cc1`, for which the negative logarithm of the IC50 (pIC50) was 8.23.
With `O=[N+]([O-])c1ccc(CN2CCC3(CCCc4ccccc43)CC2)cc1`, the pIC50 was 7.85.
Compound `c1ccc(CCN2CCC3(CCCc4ccccc43)CC2)cc1` showed a negative-log IC50 (pIC50) of 8.30.
With `COc1ccc(CN2CCC3(CCc4ccccc43)CC2)cc1`, the pIC50 was 8.46.
Regarding `c1ccc(CN2CCC3(CCCCc4ccccc43)CC2)cc1`, the negative-log IC50 (pIC50) was 8.17.
`COc1ccc(CN2CCC3(CCCc4ccccc43)CC2)cc1` gave a negative-log IC50 (pIC50) of 8.77.
On to `c1coc(CN2CCC3(CCCc4ccccc43)CC2)c1`, for which the pIC50 was 8.02.
As for `Oc1ccc2c(c1)C1(CCC2)CCN(Cc2ccccc2)CC1`, the pIC50 was 7.16.
Turning to `c1ccc(CCN2CCC3(CCc4ccccc43)CC2)cc1`, the pIC50 was 8.55.
`Clc1ccc(CN2CCC3(CCCc4ccccc43)CC2)cc1` gave a negative-log IC50 (pIC50) of 8.17.
As to `Cc1ccc2c(c1)CCCC21CCN(Cc2ccccc2)CC1`, the pIC50 was 8.26.
`c1ccc(CN2CCC3(CCc4ccccc43)CC2)nc1` gave a pIC50 of 7.80.
Turning to `C=CCN1CCC2(CCCc3ccccc32)CC1`, the pIC50 is 7.74.
Turning to `c1csc(CN2CCC3(CCCc4ccccc43)CC2)c1`, the negative logarithm of the IC50 (pIC50) is 8.20.
Then `CCCCN1CCC2(CCCCc3ccccc32)CC1`, with 8.32.
Then `CCCCN1CCC2(CCc3ccccc32)CC1`, with 8.70.
Compound `CCCCCCN1CCC2(CCCc3ccccc32)CC1` showed a negative-log IC50 (pIC50) of 8.54.

The values are drawn from BindingDB's records for doi:10.1021/jm00089a013 (Merck Sharp and Dohme Research Laboratories, 1992).
